# Source: patent US20220213052A1, “INHIBITORS OF RNA-BINDING PROTEINS, COMPOSITIONS THEREOF, AND THERAPEUTIC USES THEROF” (The University of North Carolina at Chapel Hill, priority 2019, published 2022)
# Tests used:
# PC3 cells = assay: mRNA level of HuR target Msi2 after docetaxel treatment; assay type: cell-based
# From the text: FIGS. 1A-F provide the results of studies illustrating RNA-binding protein Hu antigen R (HuR) is involved in chemo/radiation-induced tumor response. […] HuR knock-down by siRNA sensitized cancer cells to X-ray radiation, with an enhancement ratio (ER) of 1.5 versus the negative control (NC) siRNA (FIG. 1F).
# [1] = system: MDA-MB-231 mouse xenograft; assay: MDA-MB-231 mouse xenograft model, KH-39 alone and with docetaxel; assay type: in vivo, mice; details: after three-week treatment; KH-39 i.p. 50 mg/kg 5 times per week; TXT i.v.; ***P<0.001, ****P<0.0001, n=12
# From the text: Cytotoxicity assays (as described earlier in this disclosure) for various cancer cell lines will also be performed utilizing concentrations of a compound of the present technology that are below the lethal threshold for the compound for the particular cancer (a “sub-lethal concentration”) in combination with a chemotherapeutic compound (e.g., docetaxel or doxorubicin) to illustrate compounds of the present technology sensitize cancer cell lines to chemotherapy. By way of illustration in an in vivo model, in vivo antitumor efficacy of KH-39 was examined in combination with docetaxel (a first-line chemotherapy for human breast cancer) in a MDA-MB-231 mouse xenograft model. For this, tumor-bearing female athymic mice were provided according to the protocols described earlier in the present disclosure and were randomized into four groups. One group of mice was treated with KH-39 (i.p. 50 mg/kg, 5 times per week), one group with docetaxel (TXT; i.v. at the dosages and time intervals indicated in FIG. 12), one group with a combination of KH-39 and TXT (KH-39 i.p. 50 mg/kg, 5 times per week and TXT i.v. at the dosages and time intervals indicated in FIG. 12), and one group of mice as the vehicle control. FIG. 12 illustrates the results, providing the tumor growth curves for each group.
smiles,measurement,setting,value
"CC(=O)O[C@@]12CO[C@@H]1C[C@H](O)[C@@]1(C)C(=O)[C@H](O)C3=C(C)[C@@H](OC(=O)[C@H](O)[C@@H](NC(=O)OC(C)(C)C)c4ccccc4)C[C@@](O)([C@@H](OC(=O)c4ccccc4)[C@H]21)C3(C)C [docetaxel, reference compound]",mRNA levels of HuR target Musashi 2 (Msi2),PC3 cells,increased the mRNA levels of HuR target Musashi 2 (Msi2)
same,relative tumor sizes versus control group,[1],significantly smaller than those in control group
